The source of these data is patent US20250011878A1, “METHOD TO DETECT RNA BIOMARKERS” (ITALFARMACO SPA, priority 2021, published 2025).

For data set [1] the following is noted: clinical data; cited from earlier work.
The test system of another data set is human monocytes. The experiment in a line: RNAseq gene expression in purified human monocytes treated with ITF3756 and/or TNF-α. Format: cell-based. An excerpt: PBMCs used for the experiments were obtained from Buffy Coats of healthy donors (all samples tested negative for transmissible diseases as required for blood transfusion) separated over a Ficoll-Hypaque gradient (Biochrom). Monocytes were purified by negative selection from 100×10^6 PBMC using Pan Monocytes Isolation Kit (Milteny) following manufacturer's instructions. By Pan Monocyte Isolation kit untouched monocytes are isolated from human PBMCs and the simultaneous enrichment of classical (CD14^++CD16^−), non classical (CD14^+CD16^++) and intermediate (CD14^++CD16^+) monocytes is achieved. Non-monocytes, such as T cells, NK cells, B cells, dendritic cells, and basophils are indirectly magnetically labeled using a cocktail of biotin-conjugated antibodies and anti-Biotin MicroBeads. Briefly, 400 μL of Buffer (PBS 1×, 0.5% BSA and 2 mM EDTA), 100 μL of FcR Blocking Reagent and 100 μL of Biotin-Antibody Cocktail were added to PBMC, previously washed with PBS by centrifugation 300×g for 5 minutes, mixed and incubate for 5 minutes in the refrigerator (2-8° C.). After incubation, 300 μL of Buffer and 200 μL of anti-biotin microbeads were added to the cells, mixed and incubate further for 10 minutes in the refrigerator. After incubation cells were processed by subsequent magnetic cell separation. Cell suspension was applied onto the column and the flow-through containing unlabeled cells, representing the enriched monocytes, was collected. Purified monocytes were washed with Buffer by centrifugation 300×g for 5 minutes and counted in PBS. Purified monocytes (1,0×10^6/ml) were pre-treated for 2 h with ITF3756 1 μM or DMSO (0.005%) in 12-well plates in 1 ml final volume of complete medium (RPMI (Biochrom), FCS 10% and penicillin/streptomycin 1× (Sigma)). The cells were then stimulated or not with TNF-α (100 ng/mL, Peprotech) for 4h. After incubation with ITF3756 and TNF-α, the cells were collected, washed with PBS by centrifugation 300×g for 5 minutes and stored at −80° C. Samples were thawed on the bench for 2 minutes and total RNA was extracted with Trizol reagent (Thermo Fisher Scientific), following manufacturer's instructions. Briefly, Trizol reagent (0.75 ml Trizol per 5-10×10^6 cells) was added to the samples and the samples were incubated at room temperature (RT) for 5 minutes. After incubation, chloroform (150 μL per 0.75 mL Trizol) was added to the samples and after 3 minutes of incubation at RT, samples were centrifuged for 12000×g for 14 minutes at 4° C. After centrifugation, the mixture separates into 3 phases and RNA remains in the aqueous phase. The aqueous phase was removed for each sample and placed in new tubes, and isopropanol (0,375 ml per 0.75 ml of Trizol) was added in each tube. Samples was incubated for 30 minutes in the refrigerator (2-8° C.). After incubation, samples were centrifugated for 12000×g for 10 minutes at 4° C., the supernatant was removed and 75% ethanol (0.75 ml per 0.75 ml of Trizol) was added to samples. Samples were centrifuged for 7500×g for 5 minutes at 4° C., and the supernatant discarded. RNA was air dried on the bench for 5-10 minutes. RNA Samples was then resuspended in water (10-50 μL). The scheme of the experimental procedures carried out to generate the RNA sequence data is represented in FIG. 1. To determine the quantity and the integrity/purity of RNA samples, check controls were first performed by the Agilent Technologies 2100 Bioanalyzer using RNA 6000 LabChip® kit (Agilent #5067-1511). The Bioanalyzer is a bio-analytical device based on a combination of microfluidic chips, voltage-induced size separation in gel filled channels and laser-induced fluorescence (LIF) detection on a miniaturized scale. The RNA Integrity Number (RIN) software algorithm allows the classification of total RNA, based on a numbering system from 1 to 10, (with 1 being the most degraded and 10 being the most intact). […] Purified samples were processed using TruSeq RNA-Seq v2 Library Preparation Kit. […]

[2] abbreviates: single treatment (ITF3756 1 μM or TNF-α 100 ng/mL), RNAseq, vs control.
[3] abbreviates: single treatment vs vehicle-treated control (don), monocytes 4 h, padj<0.05.

As to `O=C(NO)c1ccc(CN(c2cnccn2)c2cnccn2)cc1` [KA2507], the tolerability in patients entry in data set [1] is recorded as “very well tolerated”.
Take `O=C(CCCCCCNC(=O)c1cnc(N(c2ccccc2)c2ccccc2)nc1)NO` [Ricolinostat]: the tolerability in patients entry in data set [1] is “very well tolerated”.
For TNF-α [reference compound], in the data set with human monocytes (setting [2]), the ADA gene expression result is on record as “upregulation”, the IRF6 gene expression result is reported as “no effect” and the LTBP4 gene expression result is listed as “downregulated by two fold”. For the same compound, the MMP9 gene expression entry in the data set with human monocytes (single treatment (ITF3756 1 μM or TNF-α 100 ng/mL), RNAseq, vs untreated control) is recorded as “No modulation”. For the same compound, the PD-L1 gene expression entry in the data set on human monocytes (single treatment (TNF-α 100 ng/mL 4 h), vs control) was “strongly upregulated”. For the same compound, in the data set on human monocytes (setting [3]), the “Genes Down regulated (number of genes modulated)” value was 1688 and the “Genes Up regulated (number of genes modulated)” value stood at 1563.
